Results: patent publication US20150157036A1, “Processed Cheese With Natural Antibacterial And Antimycotic Components And Method Of Manufacturing” (KRAFT FOODS GROUP BRANDS LLC, priority 2013, published 2015)
Values joined by “and” are separate entries in the source; they are usually repeats but may differ in a detail not shown here. Equal entries are not always repeated.

Legend:
[1] = tested on: mold; experiment: Shelf life of processed cheese slices, visible mold during storage; format: cell-based; settings: processed cheese slices containing about 4.8 ppm natamycin; stored at 45° F.; control without natamycin showed visible mold at three months
Excerpt: Processed cheese slices were produced containing about 4.8 ppm natamycin (Natamax SF from Danisco).

[2] = Detectable level of natamycin in processed cheese by HPLC during storage; format: physicochemical; settings: for detectable natamycin concentration in the product: by six months, stored at 45° F.; for natamycin in processed cheese, on average: three days after producing the processed cheese, four samples
Method: Natamycin (Natamax SF from Danisco) was incorporated into processed cheese (prior to the cooking step) at 15 ppm. Cultured dairy component containing nisin was incorporated into all products at 8 percent based on the total weight of the processed cheese. Samples of the processed cheese were inoculated at 100 cfu/g and 500 cfu/g. The detectable level of natamycin was determined by HPLC.

[3] = tested on: mold cocktail of Phoma spp., Geotrichum spp., Cladosporium spp., and Penicillium spp.; experiment: Mold challenge study of processed cheese slices inoculated with a mold cocktail; format: cell-based
Method: In some approaches, the processed cheese includes an amount of natural antimycotic effective to prevent mold growth for at least about three months, in another aspect at least about four months, in another aspect at least about five months, in another aspect at least about six months, and in yet another aspect at least about seven months, when the processed cheese is stored at about 1 to about 10° C. The efficacy of the natamycin in the processed cheese product can be determined by conducting a mold challenge study, where samples of the processed cheese are inoculated with a known quantity of mold spores, such as 90 cfu/g or 500 cfu/g, and inspecting the samples for visible mold growth during storage at 40 to 45° F.
Natamycin (Natamax SF from Danisco) was incorporated into processed cheese (prior to the cooking step) at concentrations of 7 ppm and 15 ppm. The processed cheese was then submitted to a mold challenge study. The processed cheese was inoculated with a mold cocktail (spores in liquid media) of Phoma spp., Geotrichum spp., Cladosporium spp., and Penicillium spp. (which represent common types of mold) at 90 spores per 19 gram slice. The samples are inoculated by spreading the cocktail on top of cheese slices. A control was not inoculated. […] The detectable level of natamycin was determined by HPLC. […]

[4] = average of samples, dosage level 15 ppm, storage at 45° F.
[5] = dosage level 15 ppm before cooking, 8 percent cultured dairy component containing nisin, storage at 45° F., HPLC, single samples

detectable natamycin concentration in the product ([2]; 7 ppm sample, HPLC): 0.62 ppm
detectable natamycin concentration in the product ([2]; 15 ppm sample, HPLC): 4.89 ppm
Detected Natamycin Concentration (ppm) after Four Months, average [2, 4]: Average = 3.39 ppm
Detected Natamycin Concentration (ppm) after One Week, average [2, 4]: Average = 4.68 ppm
Detected Natamycin Concentration (ppm) after Two Months, average [2, 4]: Average = 5.93 ppm
Detected Natamycin Concentration (ppm) after One Week [2, 5]: 4.61 ppm and 4.63 ppm and 4.80 ppm
natamycin in processed cheese, on average ([2]; starting with 10 ppm, 8 percent cultured dairy component containing nisin): 2.8 ppm
natamycin in processed cheese, on average ([2]; starting with 15 ppm, 8 percent cultured dairy component containing nisin): 4.9 ppm
Compound: C[C@@H]1C/C=C/C=C/C=C/C=C/[C@H](O[C@@H]2O[C@H](C)[C@@H](O)[C@H](N)[C@@H]2O)C[C@@H]2O[C@](O)(C[C@@H](O)C[C@H]3O[C@@H]3/C=C/C(=O)O1)C[C@H](O)[C@H]2C(=O)O [Natamycin, natamycin]
visible mold at five months of shelf life [1]: no visible mold
Detected Natamycin Concentration (ppm) after Four Months [2, 5]: 3.07 ppm and 3.39 ppm and 3.64 ppm and 2.97 ppm and 3.37 ppm and 3.28 ppm and 3.14 ppm
Detected Natamycin Concentration (ppm) after Three Months [2, 5]: 6.87 ppm and 6.34 ppm and 7.46 ppm and 6.13 ppm and 6.84 ppm and 6.78 ppm and 7.36 ppm
Detected Natamycin Concentration (ppm) after Two Months [2, 5]: 6.73 ppm and 4.62 ppm and 6.32 ppm and 5.34 ppm and 5.91 ppm and 6.81 ppm and 5.67 ppm
change of the detectable quantity of natamycin during storage ([2]; processed cheese with natamycin and cultured dairy component, HPLC): increase in months 2 and 3 of storage and then decrease in month 4
shelf life relative to control ([3]; 10 ppm and 15 ppm natamycin plus 8 percent cultured dairy component containing nisin, inoculated with 500 cfu/g or 9,500 spores per slice): almost double that of control
extension of shelf life versus control that lacked mold inhibitor ([3]; processed cheese with 7 ppm or 15 ppm natamycin added before cooking, 90 spores per 19 gram slice, stored at 45° F.): at least six months longer than a control
